Data on one compound can be found in patent publication US20260295038A1, “GLYCOLIPID DERIVATIVE AS MINCLE LIGAND” (priority 2023, published 2026).

The target in this experiment is T1, bovine Mincle (Bos taurus, UniProt E1BHM0).
T1 construct: mouse T-cell hybridoma with FcRgamma), plate assay
T1 sequence (E1BHM0 1-211): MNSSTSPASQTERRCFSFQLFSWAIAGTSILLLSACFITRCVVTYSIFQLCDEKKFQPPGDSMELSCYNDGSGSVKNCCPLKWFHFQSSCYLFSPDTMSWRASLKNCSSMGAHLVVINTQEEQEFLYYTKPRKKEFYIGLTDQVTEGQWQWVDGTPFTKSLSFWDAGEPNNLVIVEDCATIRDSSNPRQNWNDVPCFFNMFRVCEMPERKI
The experiment in a line: Mincle ligand activity, NFAT-GFP reporter cells expressing bovine Mincle (Experimental Example 1). Particulars: 0.03 to 3 nmol, FIG. 1 right. The format is cell-based. As to the method:
Similarly, using NFAT-GFP reporter cells expressing bovine Mincle, prepared according to the method described in a literature (Yamasaki, S. et al, Nat Immunol 9, 1179-88(2008)), the ligand activity of HD-276 was evaluated on a 96-well plate. The doses of the test compounds (horizontal axis) were 0.03 to 3 (nmol) from the left to right.

Molecules are shown by their SMILES.

Turning to `CCCCCCc1ccc(O[C@@H]2OC(C)[C@H](O)[C@H](OC)C2O[C@@H]2OC(C)[C@H](O[C@@H]3OC(COC)[C@@H](O)C(O)[C@@H]3O)[C@H](OC)C2OC)cc1` (stereo in doubt) [HD-276], the Mincle ligand activity entry was “confirmed to have Mincle ligand activity”.
